# Values of other authors as cited in patent US20110045550A1, “Fission Yeast Expressing Cytochrome P450 Reductase” (priority 2007, published 2011).
# Key:
# [1] = biological target: human P-glycoprotein ATPases (ABCB1 subfamily) (Homo sapiens, UniProt P08183)
# [2] = pH=8.5
# human P-glycoprotein ATPases (ABCB1 subfamily), sequence (P08183 whole entry): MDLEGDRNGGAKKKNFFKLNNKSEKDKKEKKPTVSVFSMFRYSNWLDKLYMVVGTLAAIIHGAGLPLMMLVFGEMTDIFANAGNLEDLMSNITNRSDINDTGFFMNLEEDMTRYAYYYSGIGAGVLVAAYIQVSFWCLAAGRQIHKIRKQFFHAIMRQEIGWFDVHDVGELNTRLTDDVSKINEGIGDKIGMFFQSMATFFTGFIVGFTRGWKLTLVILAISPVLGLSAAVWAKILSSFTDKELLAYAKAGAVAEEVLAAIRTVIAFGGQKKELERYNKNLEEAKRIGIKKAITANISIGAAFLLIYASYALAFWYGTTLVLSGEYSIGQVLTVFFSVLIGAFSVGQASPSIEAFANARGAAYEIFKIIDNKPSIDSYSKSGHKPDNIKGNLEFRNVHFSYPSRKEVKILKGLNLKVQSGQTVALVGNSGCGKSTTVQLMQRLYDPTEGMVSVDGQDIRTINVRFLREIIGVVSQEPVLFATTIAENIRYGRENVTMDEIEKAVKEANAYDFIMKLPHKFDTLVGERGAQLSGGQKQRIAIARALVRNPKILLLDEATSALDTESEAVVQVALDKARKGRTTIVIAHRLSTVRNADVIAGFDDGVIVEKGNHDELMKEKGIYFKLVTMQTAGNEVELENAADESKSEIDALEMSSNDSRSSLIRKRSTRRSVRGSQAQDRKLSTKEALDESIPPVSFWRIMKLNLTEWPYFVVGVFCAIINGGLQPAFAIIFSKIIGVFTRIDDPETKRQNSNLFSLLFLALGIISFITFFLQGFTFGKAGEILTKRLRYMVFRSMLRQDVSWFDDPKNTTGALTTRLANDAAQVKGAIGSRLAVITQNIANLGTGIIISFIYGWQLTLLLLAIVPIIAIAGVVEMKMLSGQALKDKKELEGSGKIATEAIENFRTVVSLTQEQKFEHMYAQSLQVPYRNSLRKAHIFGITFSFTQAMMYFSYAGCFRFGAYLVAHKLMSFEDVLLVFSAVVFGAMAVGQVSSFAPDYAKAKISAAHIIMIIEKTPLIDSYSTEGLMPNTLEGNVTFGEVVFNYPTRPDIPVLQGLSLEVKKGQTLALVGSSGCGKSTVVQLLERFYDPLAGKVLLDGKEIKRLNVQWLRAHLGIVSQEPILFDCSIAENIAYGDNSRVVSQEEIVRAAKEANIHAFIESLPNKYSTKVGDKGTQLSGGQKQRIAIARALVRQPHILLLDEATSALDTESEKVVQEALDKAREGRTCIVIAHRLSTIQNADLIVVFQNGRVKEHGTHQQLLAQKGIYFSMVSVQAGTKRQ
SMILES,substrate for human P-glycoprotein [1],solubility [2]
CC(NC(C)(C)C)C(=O)c1cccc(Cl)c1 (stereo not drawn) [bupropion],weak substrate,
Cc1ncc2n1-c1ccc(Cl)cc1C(c1ccccc1F)=NC2 [midazolam],very good substrate,around 150 μM
